Test results published in patent publication US20220226508A1, “METHODS AND COMPOSITIONS FOR TREATING EPILEPSY” (THE REGENTS OF THE UNIVERSITY OF CALIFORNIA, priority 2019, published 2022).
Read-outs that look alike come from different tables or passages of the source.

How the values were obtained:
human H1 receptor = human H1 receptor (Homo sapiens, UniProt P35367); experiment: Radioligand binding assay (NIMH PDSP), H1; parameters: expressed in transfected cells; settings: read-out: binding affinity (Ki) H1
Chain of human H1 receptor (P35367 whole entry): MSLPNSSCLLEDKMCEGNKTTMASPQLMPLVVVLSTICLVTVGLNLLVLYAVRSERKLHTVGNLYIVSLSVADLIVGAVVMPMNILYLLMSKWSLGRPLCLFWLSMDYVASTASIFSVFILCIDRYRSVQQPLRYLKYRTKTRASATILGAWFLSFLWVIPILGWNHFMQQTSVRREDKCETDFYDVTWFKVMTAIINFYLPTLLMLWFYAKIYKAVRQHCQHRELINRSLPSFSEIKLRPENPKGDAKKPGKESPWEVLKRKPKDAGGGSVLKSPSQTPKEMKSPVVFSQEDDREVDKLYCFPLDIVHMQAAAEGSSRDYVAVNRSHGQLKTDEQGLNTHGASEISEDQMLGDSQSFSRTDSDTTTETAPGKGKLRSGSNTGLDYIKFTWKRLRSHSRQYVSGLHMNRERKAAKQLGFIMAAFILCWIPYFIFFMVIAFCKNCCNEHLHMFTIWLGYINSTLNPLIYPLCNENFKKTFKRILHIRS
Protocol: (§1) Receptor Binding Assays. In vitro binding assay and Ki data were performed by the US National Institute of Mental Health Psychoactive Drug Screening Program (NIMH PDSP). Drugs were screened against recombinant, stably expressed human 5-HT2AR, 5-HT2BR, 5-HT2CR and H1. For specific binding assays please refer to detailed procedures at https://pdspdb.unc.edu/pdspWeb/ (Besnard, J. et al., Nature, 492, 215-220, 2012).

human 5-HT2BR = target: T1, human 5-HT2BR (Homo sapiens, UniProt P41595); experiment: biochemical; type: binding; settings: read-out: binding affinity (Ki) 5-HT2BR
T1 construct: expressed in transfected cells
T1 sequence (P41595 whole entry): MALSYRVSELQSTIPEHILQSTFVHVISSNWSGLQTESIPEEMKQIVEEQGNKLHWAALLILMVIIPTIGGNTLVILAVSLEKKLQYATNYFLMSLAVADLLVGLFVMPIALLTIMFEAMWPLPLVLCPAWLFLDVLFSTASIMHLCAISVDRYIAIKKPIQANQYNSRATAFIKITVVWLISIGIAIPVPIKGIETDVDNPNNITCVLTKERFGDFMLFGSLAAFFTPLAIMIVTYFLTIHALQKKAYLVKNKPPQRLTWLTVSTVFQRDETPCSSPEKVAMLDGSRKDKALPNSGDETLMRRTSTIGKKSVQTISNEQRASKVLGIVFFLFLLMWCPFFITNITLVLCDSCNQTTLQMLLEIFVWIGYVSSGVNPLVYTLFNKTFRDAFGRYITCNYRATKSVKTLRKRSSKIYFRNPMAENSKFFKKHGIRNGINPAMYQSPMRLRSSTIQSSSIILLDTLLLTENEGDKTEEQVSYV
Protocol: as §1

human 5-HT2AR = target: T2, human 5-HT2AR (Homo sapiens, UniProt P28223); experiment: biochemical; type: binding; settings: read-out: binding affinity (Ki) 5-HT2AR
T2 construct: expressed in transfected cells
T2 sequence (P28223 whole entry): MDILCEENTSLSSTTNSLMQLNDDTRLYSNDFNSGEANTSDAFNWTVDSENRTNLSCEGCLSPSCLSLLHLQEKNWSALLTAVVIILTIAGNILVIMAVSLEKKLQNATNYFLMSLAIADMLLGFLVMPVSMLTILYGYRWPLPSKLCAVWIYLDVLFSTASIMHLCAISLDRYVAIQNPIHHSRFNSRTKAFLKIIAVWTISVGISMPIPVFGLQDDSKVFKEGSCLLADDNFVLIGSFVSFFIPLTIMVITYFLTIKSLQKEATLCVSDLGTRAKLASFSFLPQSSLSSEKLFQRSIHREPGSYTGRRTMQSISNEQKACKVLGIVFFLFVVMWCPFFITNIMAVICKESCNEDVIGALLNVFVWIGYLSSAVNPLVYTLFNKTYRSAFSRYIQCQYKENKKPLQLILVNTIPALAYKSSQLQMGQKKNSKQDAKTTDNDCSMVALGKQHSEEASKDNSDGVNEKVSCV
Protocol: as §1

human 5-HT2CR = target: T3, human 5-HT2CR (Homo sapiens, UniProt P28335); experiment: Radioligand binding assay (NIMH PDSP), 5-HT2CR; settings: read-out: binding affinity (Ki) 5-HT2CR
T3 construct: expressed in transfected cells
T3 sequence (P28335 33-458): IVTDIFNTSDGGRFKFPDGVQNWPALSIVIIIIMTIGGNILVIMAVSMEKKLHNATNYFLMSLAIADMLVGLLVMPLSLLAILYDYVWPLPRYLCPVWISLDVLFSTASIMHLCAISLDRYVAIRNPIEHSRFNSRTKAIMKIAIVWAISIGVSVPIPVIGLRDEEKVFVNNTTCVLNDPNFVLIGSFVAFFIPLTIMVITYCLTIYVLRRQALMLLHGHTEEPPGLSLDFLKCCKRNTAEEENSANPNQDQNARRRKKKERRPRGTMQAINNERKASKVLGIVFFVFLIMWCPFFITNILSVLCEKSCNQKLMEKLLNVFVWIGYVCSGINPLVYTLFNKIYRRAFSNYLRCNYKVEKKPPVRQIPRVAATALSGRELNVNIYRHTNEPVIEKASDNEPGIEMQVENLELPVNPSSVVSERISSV
Protocol: as §1

human 5-HT2R = experiment: Radioligand binding assays (NIMH PDSP), 5-HT2R subtypes together; settings: 5-HT2AR, 5-HT2BR, 5-HT2CR
Protocol: Receptor Binding Assays. In vitro binding assay and Ki data were performed by the US National Institute of Mental Health Psychoactive Drug Screening Program (NIMH PDSP). Drugs were screened against recombinant, stably expressed human 5-HT2AR, 5-HT2BR, 5-HT2CR and H1.

[1] = Solubility in the screening medium; type: physicochemical; settings: 250 μM
Protocol: 10 mM compound stock solutions were made in DMSO and then diluted in embryo medium for assays.

[2] = clemizole analogs, recombinant human receptor

| Structure (SMILES) | Ki (human H1 receptor) [nM] | Ki (human 5-HT2BR) [nM] | Ki (human 5-HT2AR) [nM] | Ki (human 5-HT2CR) [nM] | binding to any human 5-HT2R (human 5-HT2R) | Ki (human H1 receptor; [2]) [nM] | going into solution [1] | Ki (human 5-HT2BR; [2]) [nM] | Ki (human 5-HT2AR; [2]) [nM] | Ki (human 5-HT2CR; [2]) [nM] |
| --- | --- | --- | --- | --- | --- | --- | --- | --- | --- | --- |
| c1cn(CC2CCCCC2)c(CN2CCCC2)n1 [Compound 21] | > 10000 | > 10000 | > 10000 | > 10000 | no significant binding |  |  |  |  |  |
| CC(C)(C)OC(=O)N1CCN(Cc2nc3ccccc3n2Cc2ccc(Cl)cc2)CC1 [Compound 25, tert-Butyl 4-({1-[(4-chlorophenyl)methyl]-1H-benzimidazol-2-yl}methyl)piperazine-1-carboxylate] |  |  |  |  |  | 76 | failed to go into solution | 482 | 2380 | 2260 |
